From paper PMC5218480 (PLoS ONE, 2017) come the findings set out here.

Each structure is given as a SMILES string.

The assay deals with MV-4-11 cells. Briefly: Gene expression microarray analysis (Affymetrix PrimeView) and GSEA. Particulars: ProbeSet 11757113_a_at; LIST D. On the set-up: RFU PODN (11730768_x_at) / Fold change /veh PODN (11730768_x_at) / RFU LINC00158 (11744669_a_at) / Fold change /veh LINC00158 (11744669_a_at) / RFU DUSP10 (11751237_a_at) / Fold change /veh DUSP10 (11751237_a_at) / RFU ID3 (11757404_x_at) / Fold change /veh ID3 (11757404_x_at) / RFU PLEKHG5 (11737974_s_at) / Fold change /veh PLEKHG5 (11737974_s_at) / RFU LRRC4B (11730491_at) / Fold change /veh LRRC4B (11730491_at) / RFU GIMAP4 (11747438_a_at) / Fold change /veh GIMAP4 (11747438_a_at) / RFU KRT8 (11758183_x_at) / Fold change /veh KRT8 (11758183_x_at) / RFU CNN1 (11734310_a_at) / Fold change /veh CNN1 (11734310_a_at) / RFU VPS37D (11726825_at) / Fold change /veh VPS37D (11726825_at) / RFU C10orf10 (11716522_x_at) / Fold change /veh C10orf10 (11716522_x_at) / RFU KIR2DL2 /// KIR2DL4 /// KIR2DL5A /// KIR2DL5B /// KIR2DS1 /// KIR2DS2 /// KIR2DS3 /// KIR2DS4 /// KIR3DL3 /// KIR3DL3 /// KIR3DS1 (11738374_at) / Fold change /veh KIR2DL2 /// KIR2DL4 /// KIR2DL5A /// KIR2DL5B /// KIR2DS1 /// KIR2DS2 /// KIR2DS3 /// KIR2DS4 /// KIR3DL3 /// KIR3DL3 /// KIR3DS1 (11738374_at) / RFU C1QL1 (11718748_at) / Fold change /veh C1QL1 (11718748_at) / RFU TMPRSS4 (11747572_a_at) / Fold change /veh TMPRSS4 (11747572_a_at) / RFU HAMP (11756126_x_at) / Fold change /veh HAMP (11756126_x_at) / RFU RNFT2 (11725882_a_at) / Fold change /veh RNFT2 (11725882_a_at) / RFU NR4A2 (11747474_a_at) / Fold change /veh NR4A2 (11747474_a_at) / RFU ABCC12 (11746883_a_at) / Fold change /veh ABCC12 (11746883_a_at) / RFU TMEM136 (11760407_x_at) / Fold change /veh TMEM136 (11760407_x_at) / RFU CLDN22 /// WWC2 (11732394_at) / Fold change /veh CLDN22 /// WWC2 (11732394_at) / RFU HLA-DPB1 (11760878_x_at) / Fold change /veh HLA-DPB1 (11760878_x_at) / RFU SPINT1 (11716480_a_at) / Fold change /veh SPINT1 (11716480_a_at) / RFU GAP43 (11754022_s_at) / Fold change /veh GAP43 (11754022_s_at) / RFU A4GNT (11735810_at) / Fold change /veh A4GNT (11735810_at) / RFU PRB3 (11715151_x_at) / Fold change /veh PRB3 (11715151_x_at) / RFU TUBB4B (11761932_at) / Fold change /veh TUBB4B (11761932_at) / RFU CAPN14 (11732068_a_at) / Fold change /veh CAPN14 (11732068_a_at) / RFU TMCC2 (11721928_a_at) / Fold change /veh TMCC2 (11721928_a_at) / RFU IRGQ (11745062_a_at) / Fold change /veh IRGQ (11745062_a_at) / RFU FAM174B (11720279_a_at) / Fold change /veh FAM174B (11720279_a_at) / RFU TMPRSS4 (11748680_a_at) / Fold change /veh TMPRSS4 (11748680_a_at) / RFU FAM212B (11763350_a_at) / Fold change /veh FAM212B (11763350_a_at) / RFU PLEKHG5 (11743358_a_at) / Fold change /veh PLEKHG5 (11743358_a_at) / RFU ZSCAN30 (11745921_a_at) / Fold change /veh ZSCAN30 (11745921_a_at) / RFU CMKLR1 (11741424_a_at) / Fold change /veh CMKLR1 (11741424_a_at) / RFU LOC101060620 /// MAPK8IP1 (11723275_at) / Fold change /veh LOC101060620 /// MAPK8IP1 (11723275_at) / RFU SPTSSB (11747773_x_at) / Fold change /veh SPTSSB (11747773_x_at) / RFU PRSS12 (11739890_at) / Fold change /veh PRSS12 (11739890_at) / RFU BIN1 (11741810_x_at) / Fold change /veh BIN1 (11741810_x_at) / RFU WNT11 (11732464_a_at) / Fold change /veh WNT11 (11732464_a_at) / RFU C10orf10 (11716521_a_at) / Fold change /veh C10orf10 (11716521_a_at) / RFU C5orf56 (11738089_at) / Fold change /veh C5orf56 (11738089_at) / RFU CYB561 (11721691_x_at) / Fold change /veh CYB561 (11721691_x_at) / RFU ANKRD19P (11752326_a_at) / Fold change /veh ANKRD19P (11752326_a_at) / RFU OR2T12 /// OR2T33 /// OR2T8 (11738714_s_at) / Fold change /veh OR2T12 /// OR2T33 /// OR2T8 (11738714_s_at) / RFU VCAN (11748164_a_at) / Fold change /veh VCAN (11748164_a_at) / RFU JSRP1 (11732532_at) / Fold change /veh JSRP1 (11732532_at) / RFU KRTAP10-11 (11738290_x_at) / Fold change /veh KRTAP10-11 (11738290_x_at) / RFU MYO3A (11730013_a_at) / Fold change /veh MYO3A (11730013_a_at) / RFU EBF3 (11725865_a_at) / Fold change /veh EBF3 (11725865_a_at) / RFU CAMK2N1 (11719241_x_at) / Fold change /veh CAMK2N1 (11719241_x_at) / RFU C5orf56 (11738088_a_at) / Fold change /veh C5orf56 (11738088_a_at) / RFU OLFML3 (11715873_a_at) / Fold change /veh OLFML3 (11715873_a_at) / RFU LOC100653217 /// NTM (11731650_a_at) / Fold change /veh LOC100653217 /// NTM (11731650_a_at) / RFU MAPK11 (11762145_a_at) / Fold change /veh MAPK11 (11762145_a_at) / RFU FIZ1 (11724087_x_at) / Fold change /veh FIZ1 (11724087_x_at) / RFU OASL (11726364_x_at) / Fold change /veh OASL (11726364_x_at) / RFU SOX15 (11748057_x_at) / Fold change /veh SOX15 (11748057_x_at) / RFU CD79A (11719716_a_at) / Fold change /veh CD79A (11719716_a_at) / RFU HIST1H1D (11736915_at) / Fold change /veh HIST1H1D (11736915_at) / RFU CASKIN2 (11723855_a_at) / Fold change /veh CASKIN2 (11723855_a_at) / RFU LOC730098 (11760151_x_at) / Fold change /veh LOC730098 (11760151_x_at) / RFU OR4N2 (11742367_at) / Fold change /veh OR4N2 (11742367_at) / RFU PRRT2 (11749266_a_at) / Fold change /veh PRRT2 (11749266_a_at) / RFU SNX32 (11753110_a_at) / Fold change /veh SNX32 (11753110_a_at) / RFU CDHR5 (11726645_a_at) / Fold change /veh CDHR5 (11726645_a_at) / RFU RCAN1 (11760418_a_at) / Fold change /veh RCAN1 (11760418_a_at) / RFU FAM167A (11723789_a_at) / Fold change /veh FAM167A (11723789_a_at) / RFU FAM26E (11764081_at) / Fold change /veh FAM26E (11764081_at) / RFU ISYNA1 (11749810_s_at) / Fold change /veh ISYNA1 (11749810_s_at) / RFU ACY1 (11761880_at) / Fold change /veh ACY1 (11761880_at) / RFU 11764098_at / Fold change /veh 11764098_at / RFU SAMD14 (11745864_x_at) / Fold change /veh SAMD14 (11745864_x_at) / RFU NPB (11741838_a_at) / Fold change /veh NPB (11741838_a_at) / RFU TMPRSS6 (11731388_a_at) / Fold change /veh TMPRSS6 (11731388_a_at) / RFU KRTAP10-2 (11738614_at) / Fold change /veh KRTAP10-2 (11738614_at) / RFU ARHGAP8 /// PRR5-ARHGAP8 (11727945_x_at) / Fold change /veh ARHGAP8 /// PRR5-ARHGAP8 (11727945_x_at) / RFU KRTAP5-7 /// NADSYN1 (11734609_at) / Fold change /veh KRTAP5-7 /// NADSYN1 (11734609_at) / RFU RASL12 (11751679_a_at) / Fold change /veh RASL12 (11751679_a_at) / RFU CDKN2B (11736163_a_at) / Fold change /veh CDKN2B (11736163_a_at) / RFU PRF1 (11729649_at) / Fold change /veh PRF1 (11729649_at) / RFU, ZNF638 /// ZNF638-IT1 / Fold change vs veh, ZNF638 /// ZNF638-IT1 / RFU, PANK3 / Fold change vs veh, PANK3 / RFU, SH3YL1 / Fold change vs veh, SH3YL1 / RFU, ZEB2 / Fold change vs veh, ZEB2 / RFU, NRIP1 / Fold change vs veh, NRIP1 / RFU, PTTG1IP / Fold change vs veh, PTTG1IP / RFU, CAPN2 / Fold change vs veh, CAPN2 / RFU, MED14 / Fold change vs veh, MED14 / RFU, SNORA58 / Fold change vs veh, SNORA58 / RFU, C1orf63 / Fold change vs veh, C1orf63 / RFU, LRRFIP1 / Fold change vs veh, LRRFIP1 / RFU, NDUFAF7 / Fold change vs veh, NDUFAF7 / RFU, SLC12A2 / Fold change vs veh, SLC12A2 / RFU, IBTK / Fold change vs veh, IBTK / RFU, ESF1 / Fold change vs veh, ESF1 / Fold change vs veh, TMEM50B / RFU, TAOK1 / Fold change vs veh, TAOK1 / RFU, ACBD3 / Fold change vs veh, ACBD3 / RFU, TMA16 / Fold change vs veh, TMA16 / RFU, RWDD3 / Fold change vs veh, RWDD3 / RFU, BCAT1 / Fold change vs veh, BCAT1 / RFU, EDEM3 / Fold change vs veh, EDEM3 / RFU, TMEM33 / Fold change vs veh, TMEM33 / RFU, WDR75 / Fold change vs veh, WDR75 / RFU, AHCTF1 / Fold change vs veh, AHCTF1 / RFU, TFRC / Fold change vs veh, TFRC / RFU, ZDHHC17 / Fold change vs veh, ZDHHC17 / RFU, NOM1 / Fold change vs veh, NOM1 / RFU, ARL8B / Fold change vs veh, ARL8B / RFU, ZBTB11 / Fold change vs veh, ZBTB11 / RFU, TAMM41 / Fold change vs veh, TAMM41 / RFU, KIAA1704 /// LOC100996395 / Fold change vs veh, KIAA1704 /// LOC100996395 / RFU, ING1 / Fold change vs veh, ING1 / RFU, TRMT61B / Fold change vs veh, TRMT61B / RFU, FUBP3 / Fold change vs veh, FUBP3 / RFU, TP53 / Fold change vs veh, TP53 / RFU, TNKS2 / Fold change vs veh, TNKS2 / RFU, ZFP14 / Fold change vs veh, ZFP14 / RFU, ACTR2 / Fold change vs veh, ACTR2 / RFU, PPP3R1 / Fold change vs veh, PPP3R1 / RFU, PIK3R1 / Fold change vs veh, PIK3R1 / RFU, HNRNPA1 / Fold change vs veh, HNRNPA1 / RFU, RNF170 / Fold change vs veh, RNF170 / RFU, ZNF28 / Fold change vs veh, ZNF28 / RFU, RNGTT / Fold change vs veh, RNGTT / RFU, OGT / Fold change vs veh, OGT / RFU, BRD1 / Fold change vs veh, BRD1 / RFU, MARS / Fold change vs veh, MARS / RFU, ZNF655 / Fold change vs veh, ZNF655 / RFU, FAHD1 / Fold change vs veh, FAHD1 / RFU, BDP1 / Fold change vs veh, BDP1 / RFU, LRRCC1 / Fold change vs veh, LRRCC1 / RFU, ARID1A / Fold change vs veh, ARID1A / RFU, ZNF146 / Fold change vs veh, ZNF146 / RFU, ZNF330 / Fold change vs veh, ZNF330 / RFU, GPN3 / Fold change vs veh, GPN3 / RFU, C9orf123 / Fold change vs veh, C9orf123 / RFU, N4BP2L2 / Fold change vs veh, N4BP2L2 / RFU, ARFIP1 / Fold change vs veh, ARFIP1 / RFU, FAM179B / Fold change vs veh, FAM179B / RFU, BCL10 / Fold change vs veh, BCL10 / RFU, UHRF1BP1L / Fold change vs veh, UHRF1BP1L / RFU, BET1 / Fold change vs veh, BET1 / RFU, CNOT2 / Fold change vs veh, CNOT2 / RFU, ZNF268 / Fold change vs veh, ZNF268 / Fold change vs veh, ZNF507 / RFU, DGCR2 / Fold change vs veh, DGCR2 / RFU, WDSUB1 / Fold change vs veh, WDSUB1 / Fold change vs veh, HSP90B1 /// MIR3652 / RFU, ADSS / Fold change vs veh, ADSS / RFU, GK / Fold change vs veh, GK / RFU, ZNF148 / Fold change vs veh, ZNF148 / RFU, TAF9 / Fold change vs veh, TAF9 / RFU, SLC1A5 / Fold change vs veh, SLC1A5 / RFU, SLMO2 / Fold change vs veh, SLMO2 / RFU, ABCC4 / Fold change vs veh, ABCC4 / RFU, LOC101060439 /// RAP1B / Fold change vs veh, LOC101060439 /// RAP1B / RFU, RFX7 / Fold change vs veh, RFX7 / RFU, GTPBP10 / Fold change vs veh, GTPBP10 / RFU, CNEP1R1 / Fold change vs veh, CNEP1R1 / RFU, BIVM-ERCC5 /// ERCC5 / Fold change vs veh, BIVM-ERCC5 /// ERCC5 / RFU, ILF3 / Fold change vs veh, ILF3 / RFU 11762660_at / Fold change /veh 11762660_at / RFU VCAN (11757783_s_at) / Fold change /veh VCAN (11757783_s_at) / RFU DDX43 (11728927_at) / Fold change /veh DDX43 (11728927_at) / RFU KRT8 (11758188_x_at) / Fold change /veh KRT8 (11758188_x_at) / RFU NKD1 (11759106_at) / Fold change /veh NKD1 (11759106_at) / RFU SRD5A1 (11742802_a_at) / Fold change /veh SRD5A1 (11742802_a_at) / RFU TPSAB1 /// TPSB2 (11721975_s_at) / Fold change /veh TPSAB1 /// TPSB2 (11721975_s_at) / RFU GSTM3 (11746129_a_at) / Fold change /veh GSTM3 (11746129_a_at) / RFU IL23R (11737362_x_at) / Fold change /veh IL23R (11737362_x_at) / RFU TMEM51 (11727254_a_at) / Fold change /veh TMEM51 (11727254_a_at) / RFU PIWIL2 (11732686_x_at) / Fold change /veh PIWIL2 (11732686_x_at) / RFU ORM1 (11744905_x_at) / Fold change /veh ORM1 (11744905_x_at) / RFU CCDC152 (11743942_at) / Fold change /veh CCDC152 (11743942_at) / RFU ECM1 (11717891_a_at) / Fold change /veh ECM1 (11717891_a_at) / RFU IL23R (11748794_a_at) / Fold change /veh IL23R (11748794_a_at) / RFU TNFAIP8L3 (11732012_x_at) / Fold change /veh TNFAIP8L3 (11732012_x_at) / RFU MBOAT4 (11741988_at) / Fold change /veh MBOAT4 (11741988_at) / RFU 11764193_at / Fold change /veh 11764193_at / RFU TMEM53 (11763286_at) / Fold change /veh TMEM53 (11763286_at) / RFU MAGEB2 (11727129_at) / Fold change /veh MAGEB2 (11727129_at) / RFU TMEM200A (11744735_a_at) / Fold change /veh TMEM200A (11744735_a_at) / RFU CCDC152 (11751479_a_at) / Fold change /veh CCDC152 (11751479_a_at) / RFU FAM211A (11726209_a_at) / Fold change /veh FAM211A (11726209_a_at) / RFU RGS16 (11746705_a_at) / Fold change /veh RGS16 (11746705_a_at) / RFU VCAN (11755009_s_at) / Fold change /veh VCAN (11755009_s_at) / RFU RHOB (11743442_s_at) / Fold change /veh RHOB (11743442_s_at) / RFU RGS16 (11720943_a_at) / Fold change /veh RGS16 (11720943_a_at) / RFU RGS16 (11720944_at) / Fold change /veh RGS16 (11720944_at) / RFU, VPS4B / Fold change vs veh, VPS4B / RFU, CREB1 / Fold change vs veh, CREB1 / RFU, DNAJC13 / Fold change vs veh, DNAJC13 / RFU, GNAQ / Fold change vs veh, GNAQ / RFU, CDK5R1 / Fold change vs veh, CDK5R1 / RFU, ZRANB3 / Fold change vs veh, ZRANB3 / RFU, CUL4A / Fold change vs veh, CUL4A / RFU, CCNY / Fold change vs veh, CCNY / RFU, UFL1 / Fold change vs veh, UFL1 / RFU, COG3 / Fold change vs veh, COG3 / RFU, DIAPH2 / Fold change vs veh, DIAPH2 / RFU, SKA2 / Fold change vs veh, SKA2 / RFU, AFF3 / Fold change vs veh, AFF3 / RFU, LMF1 / Fold change vs veh, LMF1 / RFU, IPO11 / Fold change vs veh, IPO11 / RFU, DFFB / Fold change vs veh, DFFB / RFU, FOXP1 / Fold change vs veh, FOXP1 / RFU, CARD8 / Fold change vs veh, CARD8 / RFU, STRN3 / Fold change vs veh, STRN3 / RFU, ADK / Fold change vs veh, ADK / RFU, RASSF2 / Fold change vs veh, RASSF2 / RFU, WIPF1 / Fold change vs veh, WIPF1 / RFU, LARP1B / Fold change vs veh, LARP1B / RFU, RASA1 / Fold change vs veh, RASA1 / RFU, RB1 / Fold change vs veh, RB1 / RFU, PPFIA1 / Fold change vs veh, PPFIA1 / RFU, MAT2A / Fold change vs veh, MAT2A / RFU, CCT5 / Fold change vs veh, CCT5 / RFU, WDR92 / Fold change vs veh, WDR92 / RFU, CUX1 / Fold change vs veh, CUX1 / RFU, TTC7A / Fold change vs veh, TTC7A / RFU, TMEM135 / Fold change vs veh, TMEM135 / RFU, DEPTOR / Fold change vs veh, DEPTOR / RFU, CPM / Fold change vs veh, CPM / RFU, DNAJB6 / Fold change vs veh, DNAJB6 / RFU, CACNA2D3 / Fold change vs veh, CACNA2D3 / RFU, DTX4 / Fold change vs veh, DTX4 / RFU, TFCP2 / Fold change vs veh, TFCP2 / RFU, GMCL1 /// GMCL1P1 / Fold change vs veh, GMCL1 /// GMCL1P1 / RFU, AEBP2 / Fold change vs veh, AEBP2 / RFU, SNHG1 /// SNORD22 /// SNORD25 /// SNORD26 /// SNORD27 /// SNORD28 /// SNORD29 /// SNORD31 / Fold change vs veh, SNHG1 /// SNORD22 /// SNORD25 /// SNORD26 /// SNORD27 /// SNORD28 /// SNORD29 /// SNORD31 / Fold change (Aza/veh), C12orf56 (ProbeSet 11735607_a_at) / Fold change (ACY-1035/veh), C12orf56 (ProbeSet 11735607_a_at) / Fold change (Aza/veh), FGFR1OP (ProbeSet 11751329_s_at) / Fold change (ACY-1035/veh), FGFR1OP (ProbeSet 11751329_s_at) / Fold change (Aza/veh), VPS36 (ProbeSet 11739960_a_at) / Fold change (ACY-1035/veh), VPS36 (ProbeSet 11739960_a_at) / RFU SYPL1 (11715823_x_at) / Fold change /veh SYPL1 (11715823_x_at) / RFU IGFBP7 (11715501_s_at) / Fold change /veh IGFBP7 (11715501_s_at) / RFU REEP3 (11722064_at) / Fold change /veh REEP3 (11722064_at) / RFU IGLL1 (11728026_x_at) / Fold change /veh IGLL1 (11728026_x_at): dose or concentration left out as unconfirmed. In kind it is cell-based, human.

As to `Nc1ncn([C@@H]2O[C@H](CO)[C@@H](O)[C@H]2O)c(=O)n1` [azacitidine], the “Fold change vs veh, SNHG1 /// SNORD22 /// SNORD25 /// SNORD26 /// SNORD27 /// SNORD28 /// SNORD29 /// SNORD31” value was found to be 0.81.
